Test results reported in patent US20220380347A1, “INHIBITORS OF CYSTEINE PROTEASES AND METHODS OF USE THEREOF” (Pardes Biosciences, Inc., priority 2020, published 2022).
Read-outs that look alike come from different tables or passages of the source.

What was measured:
229E Mpro = 229E Mpro (Human coronavirus 229E, UniProt P0C6X1); assay: 229E Mpro enzymatic assay (standard methods, SARS-CoV2 Mpro assay given as exemplary); type: biochemical, human coronavirus (HCov) 229E
Outline: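 IC50 for 229E Mpro by standard methods; exemplary SARS-CoV-2 protocol used C-His6-tagged Mpro from E. coli, 25 nM enzyme, 25 μM substrate (Km 13.5 μM), in Tris-HCl pH 7.3, NaCl, EDTA, TCEP, 0.1% BSA. Inhibition normalised to no-compound and full-effect controls; four-parameter fit.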

[1] = biological target: COVID-19 (nCoV-2019, SARS-CoV2) Mpro (Severe acute respiratory syndrome coronavirus 2, UniProt P0DTD1); assay: COVID-19 (nCoV-2019, SARS-CoV2) Mpro enzymatic assay; type: biochemical; details: 25 nM Mpro, 25 μM substrate; read-out: COVID-19 Mpro IC50
HCov OC43 = assay: HCoV OC43 cytopathic effect (CPE) assay, CellTiter Glo; type: cell-based, human coronavirus (HCov) OC43
[2] = Betacoronavirus 1, OC43, read-out: OC43 IC50 (uM) MEDIAN, median
[3] = read-out: OC43 IC50 (uM) MEDIAN, median

Chain of 229E Mpro (P0C6X1 2966-3267): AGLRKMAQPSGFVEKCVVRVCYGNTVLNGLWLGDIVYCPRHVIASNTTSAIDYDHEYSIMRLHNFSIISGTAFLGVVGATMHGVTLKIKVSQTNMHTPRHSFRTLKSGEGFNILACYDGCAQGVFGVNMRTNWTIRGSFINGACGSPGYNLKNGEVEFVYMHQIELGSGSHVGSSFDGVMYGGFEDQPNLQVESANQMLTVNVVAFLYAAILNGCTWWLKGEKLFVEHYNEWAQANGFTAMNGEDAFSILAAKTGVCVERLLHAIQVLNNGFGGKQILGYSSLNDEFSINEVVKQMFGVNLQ

CO[C@@H]1C[C@H](C(=O)N(c2ccc(S(F)(F)(F)(F)F)cc2)C(C(=O)NCC2(C)COC2)c2cccnc2)N(C#N)C1 (single isomer, unassigned) [1176 Isomer 1]
EC50 (229E Mpro; 229E Mpro EC50): < 2 µM
IC50 [1]: < 2 µM
IC50 (HCov OC43; [2]): < 2 µM

C[C@H](NC(=O)C(c1cccnc1)N(C(=O)c1ccco1)c1ccc(-c2ccccc2)cc1)c1ccccc1 (single isomer, unassigned) [1353 Isomer 2]
EC50 (229E Mpro; 229E Mpro EC50): > 30 µM
IC50 [1]: > 30 µM
IC50 (HCov OC43; [3]): > 30 µM

CO[C@@H]1C[C@H](C(=O)N(c2ccc(S(F)(F)(F)(F)F)cc2)C(C(=O)NC(C)C2CCCCN2C(=O)OC(C)(C)C)c2cccnc2)N(C#N)C1 (single isomer, unassigned) [1303 Isomer 3.1]
EC50 (229E Mpro; 229E Mpro EC50): < 2 µM
IC50 [1]: < 2 µM
IC50 (HCov OC43; [3]): < 2 µM

C[C@H](NC(=O)C(c1cnccn1)N(C(=O)c1ccco1)c1ccc(-c2ccccc2)cc1)c1ccccc1 (single isomer, unassigned) [1355 Isomer 1]
EC50 (229E Mpro; 229E Mpro EC50): 2 to 10 µM
IC50 [1]: < 2 µM
IC50 (HCov OC43; [2]): > 30 µM

CC1(O)CN(C(=O)C(c2cccnc2)N(C(=O)[C@H]2CCCN2C#N)c2ccc(C(C)(C)C)cc2)C1 (single isomer, unassigned) [955 Isomer 1]
EC50 (229E Mpro; 229E Mpro EC50): 2 to 10 µM
IC50 [1]: 2 to 10 µM
IC50 (HCov OC43; [3]): 2 to 10 µM

CC(C)(C)c1ccc(N(C(=O)[C@H]2CCC(C)(C)N2C#N)C(C(=O)NC2CCCCC2)c2cccnc2)cc1 (single isomer, unassigned) [Compound 262 Isomer 2]
EC50 (229E Mpro; 229E Mpro EC50): < 2 µM
IC50 [1]: 2 to 10 µM
IC50 (HCov OC43; read-out: OC43 IC50 (uM) MEDIAN, median, listed as 262 Isomer 2): 10 to 30 µM

C[C@H]1CN(C#N)[C@H]1C(=O)N(c1ccc(S(F)(F)(F)(F)F)cc1)C(C(=O)NC1CCC(F)(F)CC1)c1cncc(F)c1 (single isomer, unassigned) [1210 Isomer 2]
EC50 (229E Mpro; read-out: 229E Mpro EC50): < 2 µM
IC50 [1]: < 2 µM
IC50 (HCov OC43; [3]): < 2 µM

COCCCNC(=O)C(c1cccnc1)N(C(=O)[C@H]1C[C@@H](O)CN1C#N)c1ccc(C(C)(C)C)cc1 (single isomer, unassigned) [647 Isomer 1]
EC50 (229E Mpro; 229E Mpro EC50): < 2 µM
IC50 [1]: < 2 µM
IC50 (HCov OC43; [2]): < 2 µM

CO[C@@H]1C[C@H](C(=O)N(c2ccc(C(C)(C)C)cc2)C(C(=O)NC2CCCCC2)c2cccnc2)N(C#N)C1 (single isomer, unassigned) [Compound 292 Isomer 1]
EC50 (229E Mpro; 229E Mpro EC50): < 2 µM
IC50 [1]: 2 to 10 µM
IC50 (HCov OC43; [2]): 2 to 10 µM

CO[C@@H]1C[C@H](C(=O)N(c2ccc(S(F)(F)(F)(F)F)cc2)C(C(=O)N(C)CC(=O)NC2CC2)c2cccnc2)N(C#N)C1 (single isomer, unassigned) [1122 Isomer 1]
EC50 (229E Mpro; read-out: 229E Mpro EC50): < 2 µM
IC50 [1]: < 2 µM
IC50 (HCov OC43; [3]): < 2 µM

CC(C)(C)c1ccc(N(C(=O)C2CCC(F)(F)CN2C#N)C(C(=O)NC2CCCCC2)c2cccnc2)cc1 (single isomer, unassigned) [885 Isomer 1, N-(4-(tert-butyl)phenyl)-1-cyano-N-(2-(cyclohexylamino)-2-oxo-1-(pyridin-3-yl)ethyl)-5,5-difluoropiperidine-2-carboxamide]
EC50 (229E Mpro; 229E Mpro EC50): 10 to 30 µM
IC50 [1]: > 30 µM
IC50 (HCov OC43; [3]): > 30 µM

C[C@@]1(O)C[C@H](C(=O)N(c2ccc(S(F)(F)(F)(F)F)cc2)C(C(=O)NC2CCC(F)(F)CC2)c2cccnc2F)N(C#N)C1 (single isomer, unassigned) [1158 Isomer 1]
EC50 (229E Mpro; 229E Mpro EC50): < 2 µM
IC50 [1]: < 2 µM
IC50 (HCov OC43; [2]): < 2 µM

CO[C@@H]1C[C@H](C(=O)N(c2ccc(S(F)(F)(F)(F)F)cc2)C(C(=O)N2CCN(C)C(=O)C2)c2cccnc2)N(C#N)C1 (stereo partly drawn) [Compound 1188]
EC50 (229E Mpro; 229E Mpro EC50): < 2 µM
IC50 [1]: 2 to 10 µM
IC50 (HCov OC43; [2]): < 2 µM

C[C@@H]1CN(C#N)[C@H]1C(=O)N(c1ccc(S(F)(F)(F)(F)F)cc1)C(C(=O)NC1CCC(F)(F)CC1)c1cncc(F)c1 (single isomer, unassigned) [1211 Isomer 2]
EC50 (229E Mpro; read-out: 229E Mpro EC50): < 2 µM
IC50 [1]: < 2 µM
IC50 (HCov OC43; [3]): < 2 µM

CS(=O)(=O)[C@H]1C[C@H](C(=O)N(c2ccc(S(F)(F)(F)(F)F)cc2)C(C(=O)NC2CCC(F)(F)CC2)c2cncc(F)c2)N(C#N)C1 (single isomer, unassigned) [1105 Isomer 1]
EC50 (229E Mpro; 229E Mpro EC50): < 2 µM
IC50 [1]: < 2 µM
IC50 (HCov OC43; [2]): < 2 µM

C[C@@]1(O)C[C@H](C(=O)N(c2ccc(S(F)(F)(F)(F)F)cc2)C(C(=O)NC2CCC(F)(F)CC2)c2cccnc2F)N(C#N)C1 (single isomer, unassigned) [1158 Isomer 2]
EC50 (229E Mpro; read-out: 229E Mpro EC50): < 2 µM
IC50 [1]: 2 to 10 µM
IC50 (HCov OC43; [3]): < 2 µM

N#CN1CC(=O)NCC1C(=O)N(c1ccc(S(F)(F)(F)(F)F)cc1)C(C(=O)NC1CCC(F)(F)CC1)c1cncc(F)c1 (single isomer, unassigned) [Compound 1160 Isomer 3, 1-cyano-N-[2-[(4,4-difluorocyclohexyl)amino]-1-(5-fluoro-3-pyridyl)-2-oxo-ethyl]-5-oxo-N-[4-(pentafluoro-λ6-sulfanyl)phenyl]piperazine-2-carboxamide]
EC50 (229E Mpro; 229E Mpro EC50): < 2 µM
IC50 [1]: 2 to 10 µM
IC50 (HCov OC43; read-out: OC43 IC50 (uM) MEDIAN, median, listed as 1160 Isomer 3): 2 to 10 µM

CC(C)(C#N)C(=O)N(c1ccc(S(F)(F)(F)(F)F)cc1)C(C(=O)NC1CCC(F)(F)CC1)c1cncc(F)c1 (single isomer, unassigned) [Compound 1316 Isomer 1, 2-cyano-N-[2-[(4,4-difluorocyclohexyl)amino]-1-(5-fluoro-3-pyridyl)-2-oxo-ethyl]-2-methyl-N-[4-(pentafluoro-λ6-sulfanyl)phenyl]propanamide]
EC50 (229E Mpro; 229E Mpro EC50): 10 to 30 µM
IC50 [1]: > 30 µM
IC50 (HCov OC43; [2]): > 30 µM

CN1CC(C(=O)N(c2ccc(S(F)(F)(F)(F)F)cc2)C(C(=O)NC2CCC(F)(F)CC2)c2cncc(F)c2)N(C#N)CC1=O (single isomer, unassigned) [Compound 1161 Isomer 1, 1-cyano-N-[2-[(4,4-difluorocyclohexyl)amino]-1-(5-fluoro-3-pyridyl)-2-oxo-ethyl]-4-methyl-5-oxo-N-[4-(pentafluoro-λ6-sulfanyl)phenyl]piperazine-2-carboxamide]
EC50 (229E Mpro; 229E Mpro EC50): < 2 µM
IC50 [1]: < 2 µM
IC50 (HCov OC43; read-out: OC43 IC50 (uM) MEDIAN, median, listed as 1161 Isomer 1): < 2 µM

C[C@@H]1CN(C#N)[C@H]1C(=O)N(c1ccc(S(F)(F)(F)(F)F)cc1)C(C(=O)NC1CCC(F)(F)CC1)c1cncc(F)c1 (single isomer, unassigned) [1211 Isomer 1]
EC50 (229E Mpro; 229E Mpro EC50): < 2 µM
IC50 [1]: 2 to 10 µM
IC50 (HCov OC43; [2]): < 2 µM

N#CN1CCOC[C@@H]1C(=O)N(c1ccc(S(F)(F)(F)(F)F)cc1)C(C(=O)NC1CCC(F)(F)CC1)c1cccnc1 (stereo partly drawn) [Compound 1315, (3R)-4-cyano-N-[2-[(4,4-difluorocyclohexyl)amino]-2-oxo-1-(3-pyridyl)ethyl]-N-[4-(pentafluoro-λ6-sulfanyl)phenyl]morpholine-3-carboxamide]
EC50 (229E Mpro; 229E Mpro EC50): < 2 µM
IC50 [1]: < 2 µM
IC50 (HCov OC43; [2]): < 2 µM

N#C[C@H]1C[C@H](C(=O)N(c2ccc(S(F)(F)(F)(F)F)cc2)C(C(=O)NC2CCC(F)(F)CC2)c2cncc(F)c2)N(C#N)C1 (single isomer, unassigned) [1100 Isomer 2]
EC50 (229E Mpro; read-out: 229E Mpro EC50): < 2 µM
IC50 [1]: < 2 µM
IC50 (HCov OC43; [3]): < 2 µM

CC1(C)CN(C#N)[C@@H](C(=O)N(c2ccc(C(C)(C)C)cc2)C(C(=O)NC2CCOCC2)c2cccnc2)CO1 (single isomer, unassigned) [Compound 1141]
EC50 (229E Mpro; 229E Mpro EC50): < 2 µM
IC50 [1]: < 2 µM
IC50 (HCov OC43; [2]): 2 to 10 µM

CO[C@@H]1C[C@H](C(=O)N(c2ccc(S(F)(F)(F)(F)F)cc2)C(C(=O)N2CCCC3(COC3)C2)c2cccnc2)N(C#N)C1 (single isomer, unassigned) [Compound 1175]
EC50 (229E Mpro; 229E Mpro EC50): < 2 µM
IC50 [1]: 2 to 10 µM
IC50 (HCov OC43; [3]): < 2 µM

O=C(NC1CCC(F)(F)CC1)C(c1cncc(F)c1)N(C(=O)c1cnc[nH]1)c1ccc(C2CC2)cc1F (single isomer, unassigned) [1336 Isomer 2, N-(4-cyclopropyl-2-fluorophenyl)-N-(2-((4,4-difluorocyclohexyl)amino)-1-(5-fluoropyridin-3-yl)-2-oxoethyl)-1H-imidazole-5-carboxamide]
EC50 (229E Mpro; 229E Mpro EC50): 10 to 30 µM
IC50 [1]: 10 to 30 µM
IC50 (HCov OC43; [3]): > 30 µM

CO[C@@H]1C[C@H](C(=O)N(c2ccc(S(F)(F)(F)(F)F)cc2)C(C)(C(=O)NC2CCC(F)(F)CC2)c2cnccn2)N(C#N)C1 (single isomer, unassigned) [1299 Isomer 2]
EC50 (229E Mpro; read-out: 229E Mpro EC50): < 2 µM
IC50 [1]: < 2 µM
IC50 (HCov OC43; [3]): < 2 µM

CC(C(=O)NC1CCC(F)(F)CC1)(c1cccnc1)N(C(=O)[C@H]1C[C@@](C)(O)CN1C#N)c1ccc(S(F)(F)(F)(F)F)cc1 (single isomer, unassigned) [Compound 1077 Isomer 1]
EC50 (229E Mpro; 229E Mpro EC50): < 2 µM
IC50 [1]: 10 to 30 µM
IC50 (HCov OC43; [2]): 2 to 10 µM

CN1CC(C(=O)N(c2ccc(S(F)(F)(F)(F)F)cc2)C(C(=O)NC2CCC(F)(F)CC2)c2cncc(F)c2)N(C#N)CC1=O (single isomer, unassigned) [Compound 1161 Isomer 3, 1-cyano-N-[2-[(4,4-difluorocyclohexyl)amino]-1-(5-fluoro-3-pyridyl)-2-oxo-ethyl]-4-methyl-5-oxo-N-[4-(pentafluoro-λ6-sulfanyl)phenyl]piperazine-2-carboxamide]
EC50 (229E Mpro; 229E Mpro EC50): 2 to 10 µM
IC50 [1]: 2 to 10 µM
IC50 (HCov OC43; read-out: OC43 IC50 (uM) MEDIAN, median, listed as 1161 Isomer 3): 10 to 30 µM

CO[C@@H]1C[C@H](C(=O)N(c2ccc(S(F)(F)(F)(F)F)cc2)C(C(=O)NCC2(C)CCCN(C(=O)OC(C)(C)C)C2)c2cccnc2)N(C#N)C1 (single isomer, unassigned) [1290 Isomer 1]
EC50 (229E Mpro; 229E Mpro EC50): < 2 µM
IC50 [1]: < 2 µM
IC50 (HCov OC43; [2]): 2 to 10 µM
